Reference: the supplement of paper PMC10307832

Legend:
Assay in all cases: relative viability (nuclei count vs DMSO), 5 days (fraction); higher = more cells survive
[1] = system: HCC-366
Method in brief: (§1)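 Nuclei were stained with Hoechst during a one-step fixation (final 0.05% Triton X-100, 1% formaldehyde, 1 ug/ml Hoechst) carried out 5 days after dosing, then counted on 4× images. The cells, lung cancer lines in 1536-well plates, had been dosed by pin tool the day after seeding with one drug alone or a fixed anchor-drug dose plus five library-drug doses (not always all listed) in √10 steps. Relative viability is the nuclei count in treated wells divided by that in vehicle wells, and each value is the median of duplicate plates.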

[2] = system: NCI-H520
Method in brief: as §1

[3] = system: LOU-NH91
Method in brief: as §1

[4] = system: NCI-H2009
Method in brief: as §1

[5] = system: NCI-H2347
Method in brief: as §1

[6] = system: NCI-H1734
Method in brief: as §1

[7] = system: NCI-H1755
Method in brief: as §1

[8] = system: UMC-11
Method in brief: as §1

[9] = system: LK-2
Method in brief: as §1

[10] = system: HCC-44
Method in brief: as §1

[11] = system: NCI-H2228
Method in brief: as §1

[12] = system: NCI-H1666
Method in brief: as §1

[13] = system: NCI-H2405
Method in brief: as §1

[14] = system: SW 1573
Method in brief: as §1

[15] = system: NCI-H838
Method in brief: as §1

[16] = system: HCC-78
Method in brief: as §1

[17] = system: 201T
Method in brief: as §1

[18] = system: NCI-H1650
Method in brief: as §1

[19] = system: NCI-H1355
Method in brief: as §1

[20] = system: BEN
Method in brief: as §1

[21] = system: NCI-H358
Method in brief: as §1

Compound: Cc1cnc(-c2cnc(NCCNc3ccc(C#N)cn3)nc2-c2ccc(Cl)cc2Cl)[nH]1 + Nc1nc2[nH]cc(CCc3ccc(C(=O)N[C@@H](CCC(=O)O)C(=O)O)cc3)c2c(=O)[nH]1 [Pemetrexed] (partner 0.2 µM)
- relative viability ([1]; first compound 0.08 µM): 0.161
- relative viability ([1]; first compound 0.253 µM): 0.137
- relative viability ([1]; first compound 0.8 µM): 0.133
- relative viability ([1]; first compound 2.53 µM): 0.126
- relative viability ([2]; first compound 0.08 µM): 0.729
- relative viability ([2]; first compound 0.253 µM): 0.727
- relative viability ([2]; first compound 0.8 µM): 0.74
- relative viability ([2]; first compound 2.53 µM): 0.492
- relative viability ([3]; first compound 0.08 µM): 0.376
- relative viability ([3]; first compound 0.253 µM): 0.383
- relative viability ([3]; first compound 0.8 µM): 0.399
- relative viability ([3]; first compound 2.53 µM): 0.349
- relative viability ([4]; first compound 0.08 µM): 0.966
- relative viability ([4]; first compound 0.253 µM): 0.983
- relative viability ([4]; first compound 0.8 µM): 0.982
- relative viability ([4]; first compound 2.53 µM): 0.95
- relative viability ([5]; first compound 0.08 µM): 0.44
- relative viability ([5]; first compound 0.253 µM): 0.42
- relative viability ([5]; first compound 0.8 µM): 0.398
- relative viability ([5]; first compound 2.53 µM): 0.431
- relative viability ([6]; first compound 0.08 µM): 0.445
- relative viability ([6]; first compound 0.253 µM): 0.371
- relative viability ([6]; first compound 0.8 µM): 0.395
- relative viability ([6]; first compound 2.53 µM): 0.323
- relative viability ([7]; first compound 0.08 µM): 0.403
- relative viability ([7]; first compound 0.253 µM): 0.437
- relative viability ([7]; first compound 0.8 µM): 0.421
- relative viability ([7]; first compound 2.53 µM): 0.565
- relative viability ([8]; first compound 0.08 µM): 0.867
- relative viability ([8]; first compound 0.253 µM): 0.772
- relative viability ([8]; first compound 0.8 µM): 0.822
- relative viability ([8]; first compound 2.53 µM): 0.735
- relative viability ([9]; first compound 0.08 µM): 0.242
- relative viability ([9]; first compound 0.253 µM): 0.252
- relative viability ([9]; first compound 2.53 µM): 0.253
- relative viability ([10]; first compound 0.08 µM): 0.633
- relative viability ([10]; first compound 0.253 µM): 0.631
- relative viability ([10]; first compound 0.8 µM): 0.643
- relative viability ([10]; first compound 2.53 µM): 0.685
- relative viability ([11]; first compound 0.08 µM): 0.36
- relative viability ([11]; first compound 0.8 µM): 0.386
- relative viability ([11]; first compound 2.53 µM): 0.288
- relative viability ([12]; first compound 0.08 µM): 0.91
- relative viability ([12]; first compound 0.253 µM): 0.824
- relative viability ([12]; first compound 0.8 µM): 0.843
- relative viability ([12]; first compound 2.53 µM): 0.747
- relative viability ([13]; first compound 0.08 µM): 1.09
- relative viability ([13]; first compound 0.253 µM): 1.06
- relative viability ([13]; first compound 0.8 µM): 1.04
- relative viability ([13]; first compound 2.53 µM): 0.468
- relative viability ([14]; first compound 0.08 µM): 1.06
- relative viability ([14]; first compound 0.253 µM): 0.797
- relative viability ([14]; first compound 0.8 µM): 0.551
- relative viability ([14]; first compound 2.53 µM): 0.364
- relative viability ([15]; first compound 0.08 µM): 0.249
- relative viability ([15]; first compound 0.253 µM): 0.247
- relative viability ([15]; first compound 0.8 µM): 0.236
- relative viability ([15]; first compound 2.53 µM): 0.243
- relative viability ([16]; first compound 0.08 µM): 0.893
- relative viability ([16]; first compound 0.253 µM): 0.839
- relative viability ([16]; first compound 0.8 µM): 0.897
- relative viability ([16]; first compound 2.53 µM): 0.938
- relative viability ([17]; first compound 0.08 µM): 0.316
- relative viability ([17]; first compound 0.8 µM): 0.345
- relative viability ([17]; first compound 2.53 µM): 0.301
- relative viability ([18]; first compound 0.08 µM): 0.356
- relative viability ([18]; first compound 0.253 µM): 0.361
- relative viability ([18]; first compound 0.8 µM): 0.315
- relative viability ([18]; first compound 2.53 µM): 0.289
- relative viability ([19]; first compound 0.08 µM): 1.06
- relative viability ([19]; first compound 0.253 µM): 0.907
- relative viability ([19]; first compound 0.8 µM): 0.991
- relative viability ([19]; first compound 2.53 µM): 0.915
- relative viability ([20]; first compound 0.08 µM): 0.787
- relative viability ([20]; first compound 0.253 µM): 0.751
- relative viability ([20]; first compound 0.8 µM): 0.771
- relative viability ([20]; first compound 2.53 µM): 0.802
- relative viability ([21]; first compound 0.08 µM): 0.168
- relative viability ([21]; first compound 0.253 µM): 0.182
- relative viability ([21]; first compound 0.8 µM): 0.184
- relative viability ([21]; first compound 2.53 µM): 0.16

Compound: O=c1[nH]c2ccccc2n1C1CCN(CCCC(c2ccc(F)cc2)c2ccc(F)cc2)CC1 [Pimozide] + Nc1nc2[nH]cc(CCc3ccc(C(=O)N[C@@H](CCC(=O)O)C(=O)O)cc3)c2c(=O)[nH]1 [Pemetrexed] (partner 0.2 µM)
- relative viability ([1]; first compound 0.08 µM): 0.166
- relative viability ([1]; first compound 0.253 µM): 0.173
- relative viability ([1]; first compound 0.8 µM): 0.12
- relative viability ([1]; first compound 2.53 µM): 0.152
- relative viability ([1]; first compound 8 µM): 0.189
- relative viability ([2]; first compound 0.08 µM): 0.651
- relative viability ([2]; first compound 0.253 µM): 0.723
- relative viability ([2]; first compound 0.8 µM): 0.739
- relative viability ([2]; first compound 2.53 µM): 0.734
- relative viability ([2]; first compound 8 µM): 0.575
- relative viability ([3]; first compound 0.08 µM): 0.389
- relative viability ([3]; first compound 0.253 µM): 0.474
- relative viability ([3]; first compound 0.8 µM): 0.395
- relative viability ([3]; first compound 2.53 µM): 0.384
- relative viability ([3]; first compound 8 µM): 0.384
- relative viability ([4]; first compound 0.08 µM): 1.07
- relative viability ([4]; first compound 0.253 µM): 1
- relative viability ([4]; first compound 0.8 µM): 0.975
- relative viability ([4]; first compound 2.53 µM): 0.963
- relative viability ([4]; first compound 8 µM): 0.973
- relative viability ([5]; first compound 0.08 µM): 0.406
- relative viability ([5]; first compound 0.253 µM): 0.449
- relative viability ([5]; first compound 0.8 µM): 0.42
- relative viability ([5]; first compound 2.53 µM): 0.368
- relative viability ([5]; first compound 8 µM): 0.475
- relative viability ([6]; first compound 0.08 µM): 0.401
- relative viability ([6]; first compound 0.253 µM): 0.436
- relative viability ([6]; first compound 0.8 µM): 0.401
- relative viability ([6]; first compound 2.53 µM): 0.416
- relative viability ([6]; first compound 8 µM): 0.434
- relative viability ([7]; first compound 0.08 µM): 0.707
- relative viability ([7]; first compound 0.253 µM): 0.423
- relative viability ([7]; first compound 0.8 µM): 0.516
- relative viability ([7]; first compound 2.53 µM): 0.389
- relative viability ([7]; first compound 8 µM): 0.393
- relative viability ([8]; first compound 0.08 µM): 0.82
- relative viability ([8]; first compound 0.253 µM): 0.681
- relative viability ([8]; first compound 0.8 µM): 0.748
- relative viability ([8]; first compound 2.53 µM): 0.772
- relative viability ([8]; first compound 8 µM): 0.725
- relative viability ([9]; first compound 0.08 µM): 0.243
- relative viability ([9]; first compound 0.253 µM): 0.268
- relative viability ([9]; first compound 0.8 µM): 0.335
- relative viability ([9]; first compound 8 µM): 0.265
- relative viability ([10]; first compound 0.08 µM): 0.67
- relative viability ([10]; first compound 0.253 µM): 0.666
- relative viability ([10]; first compound 0.8 µM): 0.577
- relative viability ([10]; first compound 2.53 µM): 0.618
- relative viability ([10]; first compound 8 µM): 0.577
- relative viability ([11]; first compound 0.08 µM): 0.329
- relative viability ([11]; first compound 0.253 µM): 0.369
- relative viability ([11]; first compound 0.8 µM): 0.306
- relative viability ([11]; first compound 2.53 µM): 0.334
- relative viability ([11]; first compound 8 µM): 0.229
- relative viability ([12]; first compound 0.08 µM): 0.808
- relative viability ([12]; first compound 0.253 µM): 0.809
- relative viability ([12]; first compound 0.8 µM): 0.834
- relative viability ([12]; first compound 2.53 µM): 0.891
- relative viability ([12]; first compound 8 µM): 0.782
- relative viability ([13]; first compound 0.08 µM): 0.968
- relative viability ([13]; first compound 0.253 µM): 1.09
- relative viability ([13]; first compound 0.8 µM): 1.05
- relative viability ([13]; first compound 2.53 µM): 0.989
- relative viability ([13]; first compound 8 µM): 0.88
- relative viability ([14]; first compound 0.08 µM): 0.852
- relative viability ([14]; first compound 0.253 µM): 0.849
- relative viability ([14]; first compound 0.8 µM): 0.831
- relative viability ([14]; first compound 2.53 µM): 0.665
- relative viability ([14]; first compound 8 µM): 0.558
- relative viability ([15]; first compound 0.08 µM): 0.251
- relative viability ([15]; first compound 0.253 µM): 0.242
- relative viability ([15]; first compound 0.8 µM): 0.238
- relative viability ([15]; first compound 2.53 µM): 0.236
- relative viability ([15]; first compound 8 µM): 0.221
- relative viability ([16]; first compound 0.08 µM): 0.911
- relative viability ([16]; first compound 0.8 µM): 0.91
- relative viability ([16]; first compound 2.53 µM): 0.872
- relative viability ([16]; first compound 8 µM): 0.87
- relative viability ([17]; first compound 0.08 µM): 0.31
- relative viability ([17]; first compound 0.253 µM): 0.334
- relative viability ([17]; first compound 0.8 µM): 0.332
- relative viability ([17]; first compound 2.53 µM): 0.312
- relative viability ([17]; first compound 8 µM): 0.276
- relative viability ([18]; first compound 0.08 µM): 0.338
- relative viability ([18]; first compound 0.253 µM): 0.341
- relative viability ([18]; first compound 0.8 µM): 0.326
- relative viability ([18]; first compound 2.53 µM): 0.356
- relative viability ([18]; first compound 8 µM): 0.408
- relative viability ([19]; first compound 0.08 µM): 1.07
- relative viability ([19]; first compound 0.253 µM): 1.01
- relative viability ([19]; first compound 0.8 µM): 0.878
- relative viability ([19]; first compound 2.53 µM): 1.03
- relative viability ([19]; first compound 8 µM): 1.01
- relative viability ([20]; first compound 0.08 µM): 0.856
- relative viability ([20]; first compound 0.253 µM): 0.689
- relative viability ([20]; first compound 0.8 µM): 0.766
- relative viability ([20]; first compound 2.53 µM): 0.708
- relative viability ([20]; first compound 8 µM): 0.837
- relative viability ([21]; first compound 0.08 µM): 0.171
- relative viability ([21]; first compound 0.253 µM): 0.178
- relative viability ([21]; first compound 0.8 µM): 0.159
- relative viability ([21]; first compound 2.53 µM): 0.172
- relative viability ([21]; first compound 8 µM): 0.147
